# Reference: paper PMC4820309, “Pseudopterosin A: Protection of Synaptic Function and Potential as a Neuromodulatory Agent” (Marine Drugs, 2016)
# Like-named read-outs stand apart in the source and are kept apart here.
# Legend:
# Drosophila larval NMJ [1] = experiment: Synaptic transmission at the Drosophila larval NMJ during H2O2-induced oxidative stress (EJP recording until synaptic failure); format: cell-based, Drosophila melanogaster
# Description: (§1) This study used wild-type Canton-S Drosophila melanogaster third instar wandering larvae (~110 h old). All larvae were raised within an equal population density in 170 mL plastic culture bottles (~100 flies per bottle) containing 50 mL of Nutri-Fly Bloomington Formulation (Genessee Scientific, San Diego, CA, USA) fly food in an incubator at 25 °C under a 12 h:12 h light–dark light cycle.
# (§2) Synaptic transmission was measured in Canton-S animals as previously described. Briefly, individual Canton-S third instar larvae were placed in a glass dissecting dish containing 2 mL of Schneider’s insect medium (Sigma, St. Louis, MO, USA) with the dorsal side up using standard insect pins. A longitudinal cut was made along the dorsal surface and the internal organs and central nervous system were removed to expose the underlying segmental muscles and nerves. An extracellular glass suction electrode was used to stimulate segmental nerves in muscle segments. The postsynaptic excitatory junction potential (EJP) was recorded from muscle 6 in abdominal segment A3 or A4 with a sharp intracellular glass recording electrode filled with 3 M KAc (~40 MΩ). The Schneider’s insect medium was replaced with 2 mL of hemolymph-like (HL-3) saline (1.5 mM CaCl2, 20 mM MgCl2, 5 mM KCl, 70 mM NaCl, 10 mM NaHCO3, 5 mM BES, 115 mM sucrose, 5 mM trehalose·2H2O) made fresh daily. EJP recordings were viewed with an oscilloscope and digitally stored using the Scope program (AD Instruments, Colorado Springs, CO, USA) for analysis. Evoked EJPs from repetitive stimulation (0.3 ms pulses delivered suprathreshold with a 1 Hz frequency) of both axons in larval muscle 6 were recorded in a stop-flow condition until synaptic transmission failure (amplitude < 1 mV).
# (§3) The same electrophysiology preparation assay described above was performed; however, Canton-S larvae were also exposed to oxidative stress, Trolox, and PsA. Oxidative stress was induced in larval preparations by adding either 1 mM H2O2 or 75 µM NaN3 to the HL-3 saline (all chemicals obtained from Sigma, St. Louis, MO, USA). Larvae subjected to oxidative stress and simultaneous drug treatment included one of the following agents dissolved in DMSO: 5 µM Trolox or 1 µM PsA. A dose-response assay from 0.5 to 10 µM was performed to determine the effective concentration of PsA to prolong synaptic transmission at the Drosophila larval NMJ during oxidative stress exposure (Figure 3).
# (§4) All synaptic function data were analyzed using SigmaPlot (Systat Software, San Jose, CA, USA) statistical analysis software. A one-way analysis of variance (ANOVA) test followed by a post hoc multiple comparisons procedure (Holm–Šidák) was used to compare significant differences across all treatment groups. Statistical significance (p < 0.05) was assigned using letter designations, where different letters show significant differences and the same letter assignments are not significant. The letter assignments begin with “A” representing the highest mean, “B” indicating the next highest, and so forth. All vertical bar charts are shown with the means ± SE.
# Drosophila larval NMJ [2] = experiment: Synaptic transmission at the Drosophila larval NMJ during NaN3-induced oxidative stress (EJP recording until synaptic failure); format: cell-based, Drosophila melanogaster; conditions: for average time until synaptic failure: mean ± SE
# Description: as §1, §2, §3, §4
# [3] = design: method as in PMID 22851883; conditions: cited from earlier work
# [4] = Pharmacokinetics and tissue distribution of PsA in mice after IV bolus; format: in vivo, mouse; conditions: for Kp / half-life: mouse, iv, 50 mg/kg; for AUC (AUClast): linear trapezoidal rule
# Description: After spiking with 10 µL of 17β-estradiol (100 µg/mL), 100 µL plasma or […] of tissue homogenate (prepared as above) was mixed with 300 µL of acetonitrile and vortex-mixed for 15 s. The samples were then extracted with 0.6 mL of ethyl acetate. After centrifugation for 10 min at 2000× g, the upper organic layer was removed and evaporated to dryness under reduced pressure in a vacuum centrifuge. The residue obtained was reconstituted in 80 µL acetonitrile with ultrasonic treatment for 1 min and the derivatization was performed as follows.
# The HPLC measurements were carried out using a Shimadzu LC-20AT liquid chromatography, which were coupled to a UV-SPD-M20A diode array detector. Data acquisition was performed using EZStart chromatography software package version 7.4. The chromatographic separation of NBD-Cl -derivative of PsA was achieved using Phenomenex Gemini 5 µm C18 110 Å column with a Phenomenex Security Guard C18 guard column (Torrance, CA, USA). The Mobile phase: A: 20 mM AcONH4 (pH = 7.4): ACN (2:1); B: CAN. Running program: 0–5 min, 80%–90% B; 5–7 min, 90% B; 7–12 min, 90%–100% B; 12–15 min, 100%–80% B. The mobile phase flow rate was 1.0 mL/min and the UV detection wavelength was set to 378 nm. Under the chromatographic conditions described, NBD-Cl derivatives of PsA and 17β-estradiol eluted at 7.3 and 5.5 min, respectively.
# (Pharsight, Mountain View, CA, USA).
# mice = experiment: Tolerability in mice after 50 mg/kg intravenous injection
# Description: Male NIH Swiss mice (25–30 g) were obtained from Harlan Laboratories, Inc. The mice were acclimated (5 mice/cage) for at least 7 days in an AAALAC (Association for Assessment and Accreditation of Laboratory Animal Care) approved animal care facility after arrival. […] The mice were fasted 12 h before receiving PsA and fed 4 h after drug administration. All mice received an IV bolus dose of PsA (50 mg/kg) via the tail vein. The mice (N = 3 per time point) were sacrificed under anesthesia and blood samples were collected at each time point (2, 5, 10, 15, 30, 60, 90, 120, 180, 240, 360, 480, 720 min) into heparinized microcentrifuge tubes. Plasma was prepared by centrifugation of blood at 1000 g for 15 min at 4 °C and stored at −80 °C until analysis. Tissues (brain, liver, and kidney) were also collected and homogenized (with 1:1 water for tissues) and stored at −80 °C until analysis. Plasma, liver, brain, and kidney were processed and analyzed as mentioned above. A calibration curve from each matrix was prepared on the day of analysis to calculate the concentrations of PsA present in the real samples. The concentration–time profiles of PsA in all matrices were plotted.
# [5] = male, NIH Swiss, mouse brain, 50 mg/kg IV
# [6] = male, NIH Swiss, mouse kidney, 50 mg/kg IV
# [7] = male, NIH Swiss, mouse liver, 50 mg/kg IV
# [8] = male, NIH Swiss, mouse plasma, 50 mg/kg IV bolus, estimate ± standard error
compound,measurement,setting,value
"OO [H2O2, hydrogen peroxide]",average time until synaptic transmission failure,"Drosophila larval NMJ [1]; H2O2 1 mM alone, control 132 ± 3 min",50 ± 2 min
same,maximal time of synaptic activity before failure,"Drosophila larval NMJ [1]; H2O2 1 mM alone, controls 136 or 139 min",55 min
"[N-]=[N+]=[N-].[Na+] [NaN3, sodium azide, reference compound]",average time of synaptic activity until failure,"Drosophila larval NMJ [2]; NaN3 75 µM alone, control 130 ± 3 min",44 ± 3 min
same,maximal time of synaptic activity before failure,"Drosophila larval NMJ [2]; NaN3 75 µM alone, controls 136 or 139 min",52 min
"CC(C)=C[C@H]1C[C@H](C)[C@H]2CC[C@H](C)c3c(O[C@@H]4OC[C@@H](O)[C@H](O)[C@H]4O)c(O)c(C)c1c32 [PsA, pseudopterosin A]",lipophilicity,[3],high lipophilicity
same,Kp,"[4]; male, NIH Swiss, brain / plasma, mouse brain, 50 mg/kg IV, read-out: Relative Exposure (AUCtissue/AUCplasma)",1.36
same,half-life,"[4]; male, NIH Swiss, brain, mouse brain, 50 mg/kg IV, read-out: Half-life (converted)",175 min
same,Kp,"[4]; male, NIH Swiss, brain, liver, kidney / plasma, all tissues (brain, liver, kidney) vs plasma, 50 mg/kg IV, read-out: relative exposure (RE)",1.27 to 1.36
same,Kp,"[4]; male, NIH Swiss, brain, liver, kidney / plasma, brain, liver and kidney during the elimination phase, 50 mg/kg IV, read-out: tissue/plasma concentration ratios",> 1
same,Kp,"[4]; male, NIH Swiss, kidney / plasma, mouse kidney, 50 mg/kg IV, read-out: Relative Exposure (AUCtissue/AUCplasma)",1.28
same,half-life,"[4]; male, NIH Swiss, kidney, mouse kidney, 50 mg/kg IV, read-out: Half-life (converted)",239 min
same,Kp,"[4]; male, NIH Swiss, liver / plasma, mouse liver, 50 mg/kg IV, read-out: Relative Exposure (AUCtissue/AUCplasma)",1.27
same,half-life,"[4]; male, NIH Swiss, liver, mouse liver, 50 mg/kg IV, read-out: Half-life (converted)",190 min
same,half-life,"[4]; male, NIH Swiss, plasma, brain, liver, kidney, mouse plasma and tissues (brain, liver, kidney), 50 mg/kg IV, read-out: elimination half-life",180 to 240 min
same,half-life,"[4]; male, NIH Swiss, plasma, mouse plasma, 50 mg/kg IV bolus, two-compartment model, estimate ± standard error, read-out: Distribution Half-life (converted)",3 ± 0.3 min
same,half-life,"[4]; male, NIH Swiss, plasma, mouse plasma, 50 mg/kg IV bolus, two-compartment model, estimate ± standard error, read-out: Elimination Half-life (converted)",193 ± 18 min
same,Cmax,[4]; [5],10000 ng/g
same,Tmax,[4]; [5],30 min
same,Cmax,[4]; [6],3000 ng/g
same,Tmax,[4]; [6],90 min
same,Cmax,[4]; [7],10100 ng/g
same,Tmax,[4]; [7],10.2 min
same,AUC,[4]; [8],14400 ± 950 ng·h/mL
same,Cmax,[4]; [8],85.5 ± 7.64 µg/mL
same,clearance,[4]; [8],58 mL/min/kg
same,Vd,"[4]; male, NIH Swiss, mouse plasma, 50 mg/kg IV bolus, estimate ± standard error, read-out: Vss",10.1 ± 1.35 L/kg
same,time of peak mean concentration,"[4]; mouse brain, 50 mg/kg IV",30 min
same,AUC (AUClast),"[4]; mouse brain, 50 mg/kg IV",19.49 mg·h/kg
same,time of peak mean concentration,"[4]; mouse kidney, 50 mg/kg IV",90 min
same,AUC (AUClast),"[4]; mouse kidney, 50 mg/kg IV",18.37 mg·h/kg
same,time of peak mean concentration,"[4]; mouse liver, 50 mg/kg IV",10.2 min
same,AUC (AUClast),"[4]; mouse liver, 50 mg/kg IV",18.20 mg·h/kg
same,increase of synaptic tolerance,"Drosophila larval NMJ [2]; PsA 500 nM during NaN3 75 µM exposure, vs NaN3 alone",87%
same,average time until synaptic failure,Drosophila larval NMJ [2]; PsA 500 nM with NaN3 75 µM,83 ± 5 min
same,increase of synaptic functional tolerance,"Drosophila larval NMJ [2]; PsA 1 µM during NaN3 75 µM exposure, vs NaN3 alone",152%
same,maximal synaptic failure time,Drosophila larval NMJ [2]; PsA 1 µM with NaN3 75 µM,122 min
same,average time until synaptic failure,"Drosophila larval NMJ [2]; PsA 1 µM with NaN3 75 µM, failure = EJP amplitude < 1 mV",112 ± 4 min
same,increase of synaptic tolerance,"Drosophila larval NMJ [1]; PsA 1 µM during H2O2 1 mM exposure, vs H2O2 alone",26%
same,maximal synaptic failure time,Drosophila larval NMJ [1]; PsA 1 µM with H2O2 1 mM,70 min
same,average time until synaptic transmission failure,"Drosophila larval NMJ [1]; PsA 1 µM with H2O2 1 mM, mean ± SE",63 ± 2 min
same,tolerability of the dose,mice,well tolerated
"Cc1c(C)c2c(c(C)c1O)CCC(C)(C(=O)O)O2 (centres unmarked) [Trolox, 6-hydroxy-2,5,7,8-tetramethylchromane-2-carboxylic acid, reference compound]",increase of synaptic activity,"Drosophila larval NMJ [2]; Trolox 5 µM during NaN3 75 µM exposure, vs NaN3 alone",25%
same,maximal time until synaptic breakdown,Drosophila larval NMJ [2]; Trolox 5 µM with NaN3 75 µM,64 min
same,average time until synaptic failure,Drosophila larval NMJ [2]; Trolox 5 µM with NaN3 75 µM,55 ± 3 min
same,increase of synaptic function,"Drosophila larval NMJ [1]; Trolox 5 µM during H2O2 1 mM exposure, vs H2O2 alone",60%
same,maximal time until synaptic breakdown,Drosophila larval NMJ [1]; Trolox 5 µM with H2O2 1 mM,85 min
same,average time until synaptic transmission failure,"Drosophila larval NMJ [1]; Trolox 5 µM with H2O2 1 mM, mean ± SE",80 ± 2 min
